Data: US20250195463A1, “ORGANOMETALLIC COMPLEX, CONTROLLED-RELEASE MULTI-FUNCTIONAL DRUG, PHARMACEUTICAL COMPOSITION, PROCESSES FOR THE PREPARATION THEREOF AND THEIR USE” (FACULDADE DE CIÊNCIAS DA UNIVERSIDADE DE LISBOA, priority 2022, published 2025)
Where two headings read alike, the source gives them in different places.

Tests used:
[1] = test system: SK-BR-3 (FGFR+); assay: MTT cytotoxicity assay; conditions: read-out: Cytotoxic activity expressed as IC50; Table 6; SK-BR-3 (FGFR+); 48 h, 37° C.
In short: (§1)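 Cells were exposed continuously for 48 h at 37 °C to compounds at 0.1 to 100 μM. In pH-controlled runs, RuPC1 stock was pre-incubated 48 h at pH 6.8 or 7.4, then tested at 0.1 to 50 μM. Viability was read by MTT (0.5 mg/mL, 3 h) absorbance at 570 nm versus untreated cells, with IC50 fitted.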

[2] = test system: MDA-MB-134-VI (FGFR+); assay: MTT cytotoxicity assay; conditions: read-out: Cytotoxic activity expressed as IC50; Table 6; MDA-MB-134-VI (FGFR+); 48 h, 37° C.
In short: as §1

[3] = test system: MDA-MB-231 (FGFR−); assay: MTT cytotoxicity assay; conditions: for IC50: read-out: Cytotoxic activity expressed as IC50, 48 h, 37° C.
In short: as §1

[4] = test system: MCF-7 (FGFR−); assay: MTT cytotoxicity assay; conditions: read-out: Cytotoxic activity expressed as IC50; Table 6; MCF-7 (FGFR−); 48 h, 37° C.
In short: as §1

[5] = Stability in organic medium (dimethyl sulfoxide) by UV-Vis spectroscopy; format: physicochemical; conditions: for Relative variation of the maximum absorbance of the π→π* transitions: band 289-300 nm (λmax in column head); for Relative variation of the maximum absorbance of the charge transfer bands: band 357-425 nm (λmax in column head)
In short: (§2)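 UV-Vis spectra (270-900 nm) were recorded at intervals from 0 to 24 h, at room temperature in the dark. Solvents were 100% DMSO, or 5% or 10% DMSO in DMEM depending on complex, at 7.0×10^-5 M to 3.0×10^-4 M.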

[6] = Stability in aqueous medium (dimethyl sulfoxide/Dulbecco's Modified Eagle Medium) by UV-Vis spectroscopy; format: physicochemical; conditions: 5% dimethyl sulfoxide/95% Dulbecco's Modified Eagle Medium; for Relative variation of the maximum absorbance of the π→π* transitions: band 292-296 nm (λmax in column head); for Relative variation of the maximum absorbance of the charge transfer bands: band 358-400 nm (λmax in column head)
In short: as §2

For NNC(=O)C1=C[CH]([Ru-]2([PH](c3ccccc3)(c3ccccc3)c3ccccc3)[n+]3ccccc3-c3cccc[n+]32)C=C1.O=S(=O)([O-])C(F)(F)F (centres unmarked) [compound 4], the IC50 [1] was 7.5 ± 1 µM, the IC50 [2] was 7.1 ± 1.3 µM and the “IC50 range in words” value ([3]; MDA-MB-231, Example 24) was “low micromolar range”. For the same compound, the IC50 ([3]; Table 5, MDA-MB-231) was 7.1 µM, the IC50 ([3]; Table 6, MDA-MB-231 (FGFR−)) was 6.1 ± 1.3 µM and the IC50 [4] was 5.8 ± 0.8 µM. The “Relative variation of the maximum absorbance of the π→π* transitions” value (from here on “Relative variation … of the π→π* transitions”) ([5]; time 0 h) was 0.0%, the “Relative variation of the maximum absorbance of the charge transfer bands” value ([5]; time 0 h) was 0.0% and the “Relative variation … of the π→π* transitions” value ([5]; time 0.25 h) was 0.3%. For the same compound, the “Relative variation of the maximum absorbance of the charge transfer bands” value ([5]; time 0.25 h) was 0.0%, the “Relative variation … of the π→π* transitions” value ([5]; time 0.5 h) was 0.3% and the “Relative variation of the maximum absorbance of the charge transfer bands” value ([5]; time 0.5 h) was −0.1%. For the same compound, the “Relative variation … of the π→π* transitions” value ([5]; time 0.75 h) was 0.3%, the “Relative variation of the maximum absorbance of the charge transfer bands” value ([5]; time 0.75 h) was −0.2% and the “Relative variation … of the π→π* transitions” value ([5]; time 1 h) was 0.5%. The “Relative variation of the maximum absorbance of the charge transfer bands” value ([5]; time 1 h) was 0.1%, the “Relative variation … of the π→π* transitions” value ([5]; time 2 h) was 0.4% and the “Relative variation of the maximum absorbance of the charge transfer bands” value ([5]; time 2 h) was −0.2%. The “Relative variation … of the π→π* transitions” value ([5]; time 3 h) was 0.6%, the “Relative variation of the maximum absorbance of the charge transfer bands” value ([5]; time 3 h) was 0.2% and the “Relative variation … of the π→π* transitions” value ([5]; time 4 h) was 0.7%. For the same compound, the “Relative variation of the maximum absorbance of the charge transfer bands” value ([5]; time 4 h) was 0.9%, the “Relative variation … of the π→π* transitions” value ([5]; time 5 h) was −0.3% and the “Relative variation of the maximum absorbance of the charge transfer bands” value ([5]; time 5 h) was 1.0%. For the same compound, the “Relative variation … of the π→π* transitions” value ([5]; time 6 h) was −0.2%, the “Relative variation of the maximum absorbance of the charge transfer bands” value ([5]; time 6 h) was 0.6% and the “Relative variation … of the π→π* transitions” value ([5]; time 24 h) was −0.2%. The “Relative variation of the maximum absorbance of the charge transfer bands” value ([5]; time 24 h) was 1.6%, the “Relative variation … of the π→π* transitions” value ([6]; time 0 h) was 0.0% and the “Relative variation of the maximum absorbance of the charge transfer bands” value ([6]; time 0 h) was 0.0%. For the same compound, the “Relative variation … of the π→π* transitions” value ([6]; time 0.25 h) was 0.1%, the “Relative variation of the maximum absorbance of the charge transfer bands” value ([6]; time 0.25 h) was −0.2% and the “Relative variation … of the π→π* transitions” value ([6]; time 0.5 h) was 0.1%. For the same compound, the “Relative variation of the maximum absorbance of the charge transfer bands” value ([6]; time 0.5 h) was −0.7%, the “Relative variation … of the π→π* transitions” value ([6]; time 0.75 h) was −0.4% and the “Relative variation of the maximum absorbance of the charge transfer bands” value ([6]; time 0.75 h) was −1.3%. The “Relative variation … of the π→π* transitions” value ([6]; time 1 h) was −0.3%, the “Relative variation of the maximum absorbance of the charge transfer bands” value ([6]; time 1 h) was −0.9% and the “Relative variation … of the π→π* transitions” value ([6]; time 2 h) was −0.6%. The “Relative variation of the maximum absorbance of the charge transfer bands” value ([6]; time 2 h) was −0.7%, the “Relative variation … of the π→π* transitions” value ([6]; time 3 h) was −0.9% and the “Relative variation of the maximum absorbance of the charge transfer bands” value ([6]; time 3 h) was −1.4%. The “Relative variation … of the π→π* transitions” value ([6]; time 4 h) was −1.2%, the “Relative variation of the maximum absorbance of the charge transfer bands” value ([6]; time 4 h) was −0.7% and the “Relative variation … of the π→π* transitions” value ([6]; time 5 h) was −1.5%. The “Relative variation of the maximum absorbance of the charge transfer bands” value ([6]; time 5 h) was −2.1%, the “Relative variation … of the π→π* transitions” value ([6]; time 6 h) was −1.7% and the “Relative variation of the maximum absorbance of the charge transfer bands” value ([6]; time 6 h) was −2.3%. For the same compound, the “Relative variation … of the π→π* transitions” value ([6]; time 24 h) was 0.1% and the “Relative variation of the maximum absorbance of the charge transfer bands” value ([6]; time 24 h) was 3.0%.
